According to US11154548B2, “Monosubstituted or polysubstituted amphiphilic hypocrellin derivative, and preparation method and application thereof” (Technical Institute of Physics and Chemistry of the Chinese …, priority 2015, dated 2021):
Entries after “also recorded” stand apart in the source; their conditions may differ.

Columns and labels:
Type in all cases: cell-based
Hela cells [1] = assay: Phototoxicity experiment, 671 nm laser, MTT assay; conditions: 200 nM, 50 mW/cm^2, 20 min, FIG. 16b
Experimental: Phototoxicity experiment: Hela cells were incubated together with different concentrations of the compound I-1, the HB and the Ce6 respectively, further incubated in an incubator with a 5% CO2 environment at 37° C. for another 1 hour. After laser irradiation with a power density of 50 mW/cm^2 at a wavelength of 671 nm for 20 min, the Hela cells were further cultured and incubated in an incubator with a 5% CO2 environment at 37° C. for another 24 h. The survival rate of cells in each group was detected by MTT assay.

Hela cells [2] = assay: Phototoxicity experiment, 808 nm laser, MTT assay; conditions: 300 nM, 20 mW/cm^2, 20 min, FIG. 18b
Hela cells [3] = assay: Dark cytotoxicity experiment, MTT assay; conditions: in dark
Experimental: Cultured Hela cells were digested and percussed with 0.25% trypsin, made into a single cell suspension, adjusted to a cell count of about 2×10^4/mL, inoculated into a 96-well culture plate with 200 uL/well, and cultured in an incubator with a 5% CO2 environment at 37° C. After cells were adherent, the supernatant culture solution was discarded, different concentrations of photosensitizers (hematoporphyrin derivative HpD, HB, and hypocrellin derivative HB-1) were added strictly in dark according to the experiment design, […] The survival rate of cells was detected by MTT assay. 20 uL of MTT (prepared with PBS, concentration: 5 mg/mL) was added to each well, and further incubated in an incubator with a 5% CO2 environment at 37° C. for another 4 h. Then the incubation was terminated. The supernatant was carefully pipetted from the wells and discarded, and then 150 uL of dimethyl sulfoxide (DMSO) was added to each well. The violet crystal was fully dissolved by vibration with a microvibrator for 10 min. The optical density value (OD value) of each well was detected by an ELIASA at 570 nm wavelength to calculate the cell survival rate according to the following formula: cell survival rate=OD value of the experimental group/OD value of the blank group×100%.

Hela cells [4] = assay: Cell phototoxicity experiment, 635 nm laser, MTT assay; conditions: for Hela cells killed: 160 nM, exposed to red light (635 nm, 20 mW/cm^2, 1000 S), FIG. 10b
Experimental: Cultured Hela cells were digested and percussed with 0.25% trypsin, made into a single cell suspension, adjusted to a cell count of about 2×10^4/mL, inoculated into a 96-well culture plate with 200 uL/well, and cultured in an incubator with a 5% CO2 environment at 37° C. After cells were adherent, the supernatant culture solution was discarded, different concentrations of photosensitizers (hematoporphyrin derivative HpD, HB, and hypocrellin derivative HB-1) were added strictly in dark according to the experiment design, and further incubated in an incubator with a 5% CO2 environment at 37° C. for another 1 h. Then the 96-well culture plate was perpendicularly irradiated with uniform semiconductor laser beam at a wavelength of 635 nm with the power density adjusted to 20 mW/cm^2 for 1000 S. At the same time, a blank group was arranged for each 96-well culture plate, and 6 wells were arranged for each condition. After irradiation, the culture plate was further incubated in an incubator with a 5% CO2 environment at 37° C. for another 24 h, and then the cell survival rate was detected. The survival rate of cells was detected by MTT assay. 20 uL of MTT (prepared with PBS, concentration: 5 mg/mL) was added to each well, and further incubated in an incubator with a 5% CO2 environment at 37° C. for another 4 h. Then the incubation was terminated. The supernatant was carefully pipetted from the wells and discarded, and then 150 uL of dimethyl sulfoxide (DMSO) was added to each well. The violet crystal was fully dissolved by vibration with a microvibrator for 10 min. The optical density value (OD value) of each well was detected by an ELIASA at 570 nm wavelength to calculate the cell survival rate according to the following formula: cell survival rate=OD value of the experimental group/OD value of the blank group×100%.

Hela cells [5] = assay: Dark toxicity experiment of polysubstituted derivatives, MTT assay; conditions: in dark; for cytotoxicity (dark toxicity): Hela cells, FIG. 16a / FIG. 18a
Experimental: Dark toxicity experiment: Hela cells at a certain concentration were inoculated into a 96-well plate, and cultured for 12-24 h. […] […] The survival rate of cells in each group was detected by MTT assay.
Dark toxicity experiment: Hela cells at a certain concentration were inoculated into a 96-well plate, and cultured for 12-24 h. […] […] The survival rate of cells in each group was detected by MTT assay. […] After laser irradiation with a power density of 20 mW/cm^2 at a wavelength of 808 nm for 20 min, the Hela cells were further cultured and incubated in an incubator with a 5% CO2 environment at 37° C. for another 24 h. The survival rate of cells in each group was detected by MTT assay.

Molecule	Hela cells killed (Hela cells [1])	Hela cells killed (Hela cells [4])	cytotoxicity (dark toxicity) (Hela cells [5])	other results
C=Cc1c(C)c2cc3nc(c(CC(=O)O)c4[nH]c(cc5nc(cc1[nH]2)C(C)=C5CC)c(C)c4C(=O)O)[C@@H](CCC(=O)O)[C@@H]3C [Ce6, dihydroporphin Ce6, reference compound]	about 30%			Hela cells killed (Hela cells [2]): about 20%
COc1c(O)c2c(=O)cc(OC)c3c4c(OC)cc(=O)c5c(O)c(NCCOCCO)c6c(c(c1C(/C(C)=N/CCOCCO)C(C)=C6)c23)c54 (stereo not drawn) [HB-1]		more than 90%		death of Hela cells after incubation with the photosensitizer (Hela cells [3]; 10 uM, half an hour): significant death of the Hela cells are not seen; cytotoxicity (dark toxicity) (Hela cells [3]; Hela cells, FIG. 10a / FIG. 11a): low cytotoxicity
CCCCNc1c(O)c2c3c(c(OC)c4c5c6c(c(O)c(OC)c7c6c(c1C=C(C)C7C(C)=O)c42)C(=O)C=C5OC)SCCN=3 (stereo not drawn) [I-1]	more than 90%		very low cytotoxicity; also recorded: low cytotoxicity	death of Hela cells after incubation with the photosensitizer (Hela cells [5]; 10 uM, half an hour): significant death of the Hela cells are not seen
hypocrellin B [HB]		about 20%		phototoxicity / photodynamic effect, in words (Hela cells [4]; Hela cells, compared with HB and HpD, FIG. 10-14): much poorer ability to photodynamically kill tumor cells
COC1=CC(=O)c2c(O)c(OC)c3c4c2c1c1c(OC)c2c(c5c6c(c(c4c15)C=C(C)C3C(C)=O)NCCN6)=NC(C(=O)O)CS2 (stereo not drawn) [II-2]			very low cytotoxicity	
hematoporphyrin derivative [HpD]		about 20%		
